# Source: ChEMBL document CHEMBL3638939, “Tetrahydroisoquinolines, pharmaceutical compositions containing them, and their use in therapy” (2014)
# Legend:
# [1] = target: T1, Sodium- and chloride-dependent glycine transporter 1 (Homo sapiens, UniProt P48067); assay: Radioligand Binding Assay: Radioligand binding to human GlyT1c transporter-expressing membranes was carried out as described in Mezler et al., Molecular Pharmacology 74:1705-1715, 2008.More specifically, [3H]-(R)-NPTS radioligand binding to human GlyT1c transporter-expressing membranes was measured in duplicate in a total volume of 200 ul in 96-well plates. To 100 ul of membrane suspension (yielding a final membrane protein concentration of 50 ug/ml) in assay buffer (120 mM NaCl, 2 mM KCl, 10 mM Hepes, 1 mM MgCl2, 1 mM CaCl2, pH 7.5) 80 ul of [3H]-(R)-NPTS (0.5 nM final) were added in assay buffer. For competition experiments 10 ul of buffer or unlabeled compound solution obtained from dilution series of test compounds in DMSO followed. An intermediate 1:10 dilution in assay buffer yielded a final DMSO concentration of 1%. Non-specific binding was determined in the presence of 10 uM Org24598 (or its racemate Org24461) for [3H]-(R)-NPTS.
# T1 sequence (P48067 whole entry): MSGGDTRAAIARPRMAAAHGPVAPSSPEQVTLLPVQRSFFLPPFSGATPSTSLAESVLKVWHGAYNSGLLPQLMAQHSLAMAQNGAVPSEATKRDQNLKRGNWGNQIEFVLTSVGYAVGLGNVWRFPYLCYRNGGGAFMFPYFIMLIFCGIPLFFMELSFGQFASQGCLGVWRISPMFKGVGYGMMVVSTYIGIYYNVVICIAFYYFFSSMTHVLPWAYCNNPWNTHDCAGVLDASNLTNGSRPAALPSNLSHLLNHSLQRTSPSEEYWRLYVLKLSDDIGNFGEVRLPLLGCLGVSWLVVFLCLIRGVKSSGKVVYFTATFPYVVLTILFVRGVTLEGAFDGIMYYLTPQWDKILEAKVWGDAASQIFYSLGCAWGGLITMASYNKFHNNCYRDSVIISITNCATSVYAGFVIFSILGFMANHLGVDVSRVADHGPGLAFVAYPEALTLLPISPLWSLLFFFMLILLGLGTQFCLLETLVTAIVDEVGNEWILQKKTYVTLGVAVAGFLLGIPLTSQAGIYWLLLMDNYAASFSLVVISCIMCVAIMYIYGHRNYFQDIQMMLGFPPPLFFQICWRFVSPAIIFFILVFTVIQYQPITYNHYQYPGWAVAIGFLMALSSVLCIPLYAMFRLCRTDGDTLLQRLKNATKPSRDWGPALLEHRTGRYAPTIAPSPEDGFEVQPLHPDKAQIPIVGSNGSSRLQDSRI
# [2] = target: T1, Sodium- and chloride-dependent glycine transporter 1; assay: Glycine Uptake Assay: [3H]-Glycine uptake into recombinant CHO cells expressing human GlyT1: Human GlyT1c expressing recombinant hGlyT1c_5_CHO cells were plated at 20,000 cells per well in 96 well Cytostar-T scintillation microplates (Amersham Biosciences) and cultured to sub-confluency for 24 h. For glycine uptake assays the culture medium was aspirated and the cells were washed once with 100 ul HBSS (Gibco BRL, #14025-050) with 5 mM L-Alanine (Merck #1007). 80 ul HBSS buffer were added, followed by 10 ul inhibitor or vehicle (10% DMSO) and 10 ul [3H]-glycine (TRK71, Amersham Biosciences) to a final concentration of 200 nM for initiation of glycine uptake. The plates were placed in a Wallac Microbeta (PerkinElmer) and continuously counted by solid phase scintillation spectrometry during up to 3 hours. Nonspecific uptake was determined in the presence of 10 uM Org2 4598. IC50 calculations were made by four-parametric logistic nonlinear regressi on analysis (GraphPad Prism).; format: cell-based
Ki [1],IC50 [2],Compound
< 10 µM,–,Cc1oncc1S(=O)(=O)NCCOc1ccc2c(c1)C(C1(c3ccc(Cl)cc3)CCC1)NCC2 (stereo not given)
< 10 µM,< 100 µM,O=C1c2ccccc2C(=O)N1CCS(=O)(=O)NCCOc1ccc2c(c1)C(C1(c3ccc(Cl)cc3)CCC1)NCC2 (stereo not given)
< 0.1 µM,< 0.1 µM,CCCS(=O)(=O)NCCOc1ccc2c(c1)C(C1(c3cccc(F)c3)CCC1)NCC2 (stereo not given)
